# Results as given in patent US20100209345A1, “Fluorinated Ligands for Targeting Peripheral Benzodiazepine Receptors” (Australian Nuclear Science & Technology Organisation, priority 2006, published 2010).
# Experiments:
# [1] = Biodistribution of 18F-labelled tracers in rats; format: in vivo
# Method: [^18F]Fluoride, in the form of H^18F, was produced by the ^18O(p,n)^18F nuclear reaction by bombardment of ^18O-enriched water target. The aqueous [^18F]fluoride solution was added to a 2.5-mL wheaton vial containing dry acetonitrile (1 mL), Kryptofix 2.2.2 (5 mg, 13.3 μmol) and potassium carbonate (2 mg, 14.5 μmol). The solvent was evaporated under a stream of nitrogen at 90° C. with a reducing vacuum. This azeotropic drying was repeated twice by further addition of acetonitrile (2×1 mL). The tosylate precursor 2-(2-(4-(2-tosylethoxy)phenyl)-6-chloroimidazo[1,2-a]pyridin-3-yl)-N,N-diethylacetamide (2 mg, 3.6 μmol) was dissolved in acetonitrile (1 ml) and added to the dried K222.K2CO3.KF complex. Stirring and heating at 90° C. continued for 10 to 15 mins before the reaction mixture was diluted with mobile phase and purified by reverse phase HPLC on an Alltech Alltima, C18, 10μ, 250×22 mm column eluting at 10 mLs/min with 45% acetonitrile, 55% water with 0.1% TFA.
# (§1) The biodistribution of PBR132* was undertaken in SD rats and analysis up to 4 h p.i. in the brain and peripheral tissues was performed. The specificity and selectivity of the tracer were assessed by pre-treatment with PBR and Central benzodiazepine receptor (CBR) specific ligands (1 mg/kg) 5 min prior to injection of PBR132*.
# (§2) The biodistribution of PBR 147* was performed in SD rats and brain and peripheral tissues were analysised at 15, 30 min, 1, and 4 h p.i. The specificity and selectivity of the tracer was assessed by pre-treatment of the animals with the PBR ligands PK11195 and Ro 5-4864 and with Flumazenil for CBR at 1 mg/kg 5 min prior to injection of PBR 147*
# (§3) The biodistribution of PBR102* and PBR111* were performed in SD rats and brain and peripheral tissues analysed at 15, 30 min, 1, and 4 h p.i. The specificity and selectivity of the tracers were assessed by pre-treatment with the PBR ligands PK11195 and Ro 5-4864 and with Flumazenil for CBR at 1 mg/kg 5 min prior to injection of the corresponding tracers.
# (§4) The specificity and selectivity of the tracers were assessed by pre-treatment with the PBR ligands PK11195 and Ro 5-4864 and with Flumazenil for CBR at 1 mg/kg 5 min prior to injection of the corresponding tracers.
# [2] = biological target: T1, peripheral benzodiazepine receptors (Rattus norvegicus, UniProt P16257); experiment: In vivo blocking / competition of tracer uptake by pre-treatment with PBR and CBR ligands; conditions: rats; for Tracer uptake after pre-treatment with PK 11195 / Tracer uptake after pre-treatment with Ro 5-4864: PBR-expressing tissues (brain/peripheral organs, adrenals apart); for Tracer uptake after pre-treatment with flumazenil (central benzodiazepine ligand): flumazenil 1 mg/kg 5 min prior to tracer, brain or peripheral organs
# T1 construct: high uptake in the tissues which have known PBR sites; from tissue; host or cells: organs of living SD rats (brain and peripheral tissues), in vivo
# Method: The criteria for significance were **p<0.01 (highly significant) and *p<0.05 (significant). No stars implies not statistical difference from normals or controls.
# as §1, §2, §3, §4
# [3] = system: central benzodiazepine receptors; experiment: In vitro binding, [3H]-Flumazenil, brain cortex membrane preparation; conditions: @ 10^−5M, [3H]-Flumazenil
# Method: Non-specific binding was determined with Flumazenil (20 μM). In both cases, incubations were terminated by rapid filtration through Whatman GF/B glass fibre. Filters were immediately washed 3 times with 5 mL ice-cold 50 mM Tris/HCl at pH 7.4. Filters were counted in a β-scintillation counter (Packard) to measure the amount of bound radioactivity. The IC50 of the compounds for the peripheral benzodiazepine binding site and the central benzodiazepine receptor were calculated using Kell 6 software.
# [4] = LogP HPLC
# [5] = SD rats, 15 min, decay correction not stated
# [6] = SD rats, 4 hours, decay correction not stated
# [7] = rats, 15 min, corrected for decay of 18F
# [8] = rats, 30 min, corrected for decay of 18F
# [9] = rats, 60 min, corrected for decay of 18F
# [10] = rats, 4 hours, corrected for decay of 18F
smiles,measurement,setting,value
"CCN(CC)C(=O)Cc1c(-c2ccc(C(C)(C)C)cc2)nc2ccc([18F])nn12 [PBR132*, 2-(2-(4-tert-butylphenyl)-6-fluoroimidazo[1,2-b]pyridazin-3-yl)-N,N-diethylacetamide]",Biodistribution: Bone,[1]; [5],1 % ID/g
same,Biodistribution: Heart,[1]; [5],8 % ID/g
same,Biodistribution: Kidney,[1]; [5],4 % ID/g
same,Biodistribution: Lungs,[1]; [5],16 % ID/g
same,Biodistribution: Olfactory bulbs,[1]; [5],0.63 % ID/g
same,Biodistribution: Adrenals,"[1]; SD rats, 30 min, decay correction not stated",13 % ID/g
same,Biodistribution: Bone,[1]; [6],3.3 % ID/g
same,Biodistribution: Heart,[1]; [6],less than 2.3 % ID/g
same,Biodistribution: Kidney,[1]; [6],less than 2.3 % ID/g
same,Biodistribution: Lungs,[1]; [6],less than 2.3 % ID/g
same,Biodistribution: Olfactory bulbs,[1]; [6],0.25 % ID/g
same,Blood activity level / concentration in the blood over the 4 h study period,"[1]; SD rats, throughout 15 min to 4 h",low
same,Biodistribution: Adrenals,[1]; [7],10.03 ± 1.11 % ID/g
same,Biodistribution: Bladder,[1]; [7],0.73 ± 0.33 % ID/g
same,Biodistribution: Blood,[1]; [7],0.41 ± 0.05 % ID/g
same,Biodistribution: Bone,[1]; [7],1.04 ± 0.14 % ID/g
same,Biodistribution: Brain,[1]; [7],0.35 ± 0.03 % ID/g
same,Biodistribution: GIT,[1]; [7],1.08 ± 0.08 % ID/g
same,Biodistribution: Heart,[1]; [7],8.13 ± 0.77 % ID/g
same,Biodistribution: Kidney,[1]; [7],4.10 ± 0.28 % ID/g
same,Biodistribution: Liver,[1]; [7],1.22 ± 0.17 % ID/g
same,Biodistribution: Lungs,[1]; [7],16.09 ± 2.56 % ID/g
same,Biodistribution: Muscle,[1]; [7],0.89 ± 0.28 % ID/g
same,Biodistribution: Olfactory bulbs,[1]; [7],0.63 ± 0.09 % ID/g
same,Biodistribution: Pancreas,[1]; [7],2.01 ± 0.26 % ID/g
same,Biodistribution: Skin,[1]; [7],0.60 ± 0.09 % ID/g
same,Biodistribution: Spleen,[1]; [7],5.85 ± 0.93 % ID/g
same,Biodistribution: Stomach,[1]; [7],0.58 ± 0.19 % ID/g
same,Biodistribution: Testes,[1]; [7],0.31 ± 0.03 % ID/g
same,Biodistribution: Thymus,[1]; [7],0.78 ± 0.20 % ID/g
same,Biodistribution: Thyroid,[1]; [7],8.87 ± 1.06 % ID/g
same,Biodistribution: Adrenals,[1]; [8],13.21 ± 1.16 % ID/g
same,Biodistribution: Bladder,[1]; [8],0.87 ± 0.36 % ID/g
same,Biodistribution: Blood,[1]; [8],0.32 ± 0.05 % ID/g
same,Biodistribution: Bone,[1]; [8],1.25 ± 0.18 % ID/g
same,Biodistribution: Brain,[1]; [8],0.23 ± 0.02 % ID/g
same,Biodistribution: GIT,[1]; [8],1.36 ± 0.22 % ID/g
same,Biodistribution: Heart,[1]; [8],8.34 ± 0.86 % ID/g
same,Biodistribution: Kidney,[1]; [8],3.94 ± 0.54 % ID/g
same,Biodistribution: Liver,[1]; [8],1.18 ± 0.33 % ID/g
same,Biodistribution: Lungs,[1]; [8],11.58 ± 2.11 % ID/g
same,Biodistribution: Muscle,[1]; [8],0.91 ± 0.10 % ID/g
same,Biodistribution: Olfactory bulbs,[1]; [8],0.46 ± 0.11 % ID/g
same,Biodistribution: Pancreas,[1]; [8],1.97 ± 0.32 % ID/g
same,Biodistribution: Skin,[1]; [8],0.65 ± 0.08 % ID/g
same,Biodistribution: Spleen,[1]; [8],6.89 ± 0.80 % ID/g
same,Biodistribution: Stomach,[1]; [8],0.64 ± 0.11 % ID/g
same,Biodistribution: Testes,[1]; [8],0.31 ± 0.03 % ID/g
same,Biodistribution: Thymus,[1]; [8],0.80 ± 0.06 % ID/g
same,Biodistribution: Thyroid,[1]; [8],9.15 ± 0.87 % ID/g
same,Biodistribution: Adrenals,[1]; [9],11.24 ± 2.03 % ID/g
same,Biodistribution: Bladder,[1]; [9],0.84 ± 0.08 % ID/g
same,Biodistribution: Blood,[1]; [9],0.17 ± 0.00 % ID/g
same,Biodistribution: Bone,[1]; [9],2.06 ± 0.10 % ID/g
same,Biodistribution: Brain,[1]; [9],0.12 ± 0.00 % ID/g
same,Biodistribution: GIT,[1]; [9],1.78 ± 0.04 % ID/g
same,Biodistribution: Heart,[1]; [9],6.87 ± 0.53 % ID/g
same,Biodistribution: Kidney,[1]; [9],3.24 ± 0.15 % ID/g
same,Biodistribution: Liver,[1]; [9],0.67 ± 0.06 % ID/g
same,Biodistribution: Lungs,[1]; [9],6.40 ± 0.50 % ID/g
same,Biodistribution: Muscle,[1]; [9],0.50 ± 0.03 % ID/g
same,Biodistribution: Olfactory bulbs,[1]; [9],0.36 ± 0.05 % ID/g
same,Biodistribution: Pancreas,[1]; [9],1.20 ± 0.19 % ID/g
same,Biodistribution: Skin,[1]; [9],0.64 ± 0.07 % ID/g
same,Biodistribution: Spleen,[1]; [9],5.56 ± 0.67 % ID/g
same,Biodistribution: Stomach,[1]; [9],0.47 ± 0.05 % ID/g
same,Biodistribution: Testes,[1]; [9],0.32 ± 0.01 % ID/g
same,Biodistribution: Thymus,[1]; [9],0.88 ± 0.07 % ID/g
same,Biodistribution: Thyroid,[1]; [9],18.30 ± 1.00 % ID/g
same,Biodistribution: Adrenals,[1]; [10],13.51 ± 0.61 % ID/g
same,Biodistribution: Bladder,[1]; [10],0.99 ± 0.30 % ID/g
same,Biodistribution: Blood,[1]; [10],0.07 ± 0.00 % ID/g
same,Biodistribution: Bone,[1]; [10],3.28 ± 0.65 % ID/g
same,Biodistribution: Brain,[1]; [10],0.07 ± 0.00 % ID/g
same,Biodistribution: GIT,[1]; [10],2.93 ± 0.39 % ID/g
same,Biodistribution: Heart,[1]; [10],4.71 ± 0.31 % ID/g
same,Biodistribution: Kidney,[1]; [10],2.31 ± 0.17 % ID/g
same,Biodistribution: Liver,[1]; [10],0.31 ± 0.03 % ID/g
same,Biodistribution: Lungs,[1]; [10],2.42 ± 0.25 % ID/g
same,Biodistribution: Muscle,[1]; [10],0.24 ± 0.06 % ID/g
same,Biodistribution: Olfactory bulbs,[1]; [10],0.25 ± 0.03 % ID/g
same,Biodistribution: Pancreas,[1]; [10],0.57 ± 0.10 % ID/g
same,Biodistribution: Skin,[1]; [10],0.67 ± 0.17 % ID/g
same,Biodistribution: Spleen,[1]; [10],2.64 ± 0.36 % ID/g
same,Biodistribution: Stomach,[1]; [10],0.72 ± 0.24 % ID/g
same,Biodistribution: Testes,[1]; [10],0.42 ± 0.06 % ID/g
same,Biodistribution: Thymus,[1]; [10],1.02 ± 0.06 % ID/g
same,Biodistribution: Thyroid,[1]; [10],7.41 ± 0.68 % ID/g
same,Uptake in tissues which have known PBR sites,"[1]; rats, in vivo biodistribution",high uptake
same,Tracer uptake after pre-treatment with PK 11195,[2]; PK 11195 1 mg/kg 5 min prior to tracer,decreased
same,Tracer uptake after pre-treatment with PK 11195,"[2]; PK 11195 1 mg/kg 5 min prior to tracer, listed as [^18F]PBR132",blocking effect
same,Tracer uptake in the adrenals after pre-treatment with PK 11195,"[2]; PK 11195 1 mg/kg 5 min prior to tracer, adrenals",increase
same,Tracer uptake after pre-treatment with Ro 5-4864,[2]; Ro 5-4864 1 mg/kg 5 min prior to tracer,decreased
same,Tracer uptake after pre-treatment with Ro 5-4864,"[2]; Ro 5-4864 1 mg/kg 5 min prior to tracer, listed as [^18F]PBR132",blocking effect
same,Tracer uptake in the adrenals after pre-treatment with Ro 5-4864,"[2]; Ro 5-4864 1 mg/kg 5 min prior to tracer, adrenals",increase
same,Tracer uptake after pre-treatment with flumazenil (central benzodiazepine ligand),[2],no effect
same,Tracer uptake after pre-treatment with flumazenil (central benzodiazepine ligand),[2]; listed as [^18F]PBR132,does not reduce
same,Tracer uptake after pre-treatment with the non-radioactive analogue,"[2]; non-radioactive analogue 1 mg/kg, PBR-expressing tissues",blocking effect
"CCN(CC)C(=O)Cc1c(-c2ccc(OCCCF)cc2)nn2c(C)cc(C)nc12 [PBR 146, 2-(2-(4-(3-fluoropropoxy)phenyl)-5,7-dimethylpyrazolo[1,5-a]pyrimidin-3-yl)-N,N-diethylacetamide]","CBR, % @ 10^−5M",[3],50% @ 10^−5M
same,chromatographic logP,[4],3.16 ± 0.1
